From patent US8388931B2, “99m Tc-labeled triphenylphosphonium derivative contrasting agents and molecular probes for early detection and imaging of breast tumors” (priority 2008, dated 2013)
Like-named read-outs stand apart in the source and are kept apart here.

Conditions: for Radioactivity Uptake, Bone: Bone (non-organ); for Radioactivity Uptake, Fat: Fat (non-organ); for Radioactivity Uptake, Muscle: Muscle (non-organ); for Radioactivity Uptake, Urine: Urine (non-organ)
Procedure: Rats (n=3) were sacrificed at 1, 3, 5, 10, 30 and 60 min after injection and the distribution of radioactivity in different tissues was determined by gamma well counting with an energy window of 140±15 keV. The biodistribution data is expressed in terms of percentage injected dosage per gram (% ID/g) with mean±standard deviation. Urine samples were collected from the bladder at 30 min after injection, and were analyzed by radioHPLC to determine the presence of metabolic derivatives of the radiotracer. […] Specifically, anterior planar whole-body dynamic images were acquired on an XRT gamma camera (General Electric) using a high-resolution medium energy parallel-hole collimator at one frame per minute for 60 min, with 512×512 matrix, and an energy window of 140±15 keV.

## CC(=O)[S+]1CC(=O)[N]2CC(=O)[N]3CC(=O)[N](CC(=O)NCCCCCCCCCC[P+](c4ccccc4)(c4ccccc4)c4ccccc4)[99Tc]321=[O].[Br-] (centres unmarked) [^99mTc-Mito10-MAG3]
1 min after injection, rats
  Radioactivity Uptake, Bone: 0.12 ± 0.05 % ID/g
  Radioactivity Uptake, Brain: 0.04 ± 0.03 % ID/g
  Radioactivity Uptake, Colon: 0.09 ± 0.04 % ID/g
  Radioactivity Uptake, Fat: 0.04 ± 0.02 % ID/g
  Radioactivity Uptake, Heart: 0.20 ± 0.08 % ID/g
  Radioactivity Uptake, Kidneys: 2.30 ± 0.55 % ID/g
  Radioactivity Uptake, Liver: 3.23±1.10 % ID/g
  Radioactivity Uptake, Lung: 0.82 ± 1.05 % ID/g
  Radioactivity Uptake, Muscle: 0.05 ± 0.02 % ID/g
  Radioactivity Uptake, Pancreas: 0.32 ± 0.22 % ID/g
  Radioactivity Uptake, Skin: 0.07 ± 0.03 % ID/g
  Radioactivity Uptake, Small Intestine: 0.18 ± 0.04 % ID/g
  Radioactivity Uptake, Spleen: 0.27 ± 0.12 % ID/g
  Radioactivity Uptake, Stomach: 0.26 ± 0.04 % ID/g
  Radioactivity Uptake, Thymus: 006 ± 0.02 % ID/g
  Radioactivity Uptake, Thyroid: 0.30 ± 0.13 % ID/g
  Radioactivity Uptake, Urine: 0.05 ± 0.05 % ID/g
3 min after injection, rats
  Radioactivity Uptake, Bone: 0.05 ± 0.01 % ID/g
  Radioactivity Uptake, Brain: 0.02 ± 0.01 % ID/g
  Radioactivity Uptake, Colon: 0.08 ± 0.03 % ID/g
  Radioactivity Uptake, Fat: 0.06 ± 0.01 % ID/g
  Radioactivity Uptake, Heart: 0.27±0.04 % ID/g
  Radioactivity Uptake, Kidneys: 3.69 ± 0.92 % ID/g
  Radioactivity Uptake, Liver: 2.41 ± 1.12 % ID/g
  Radioactivity Uptake, Lung: 0.31 ± 0.14 % ID/g
  Radioactivity Uptake, Muscle: 0.03 ± 0.01 % ID/g
  Radioactivity Uptake, Pancreas: 0.27 ± 0.12 % ID/g
  Radioactivity Uptake, Skin: 0.10 ± 0.04 % ID/g
  Radioactivity Uptake, Small Intestine: 0.67 ± 0.30 % ID/g
  Radioactivity Uptake, Spleen: 0.25 ± 0.17 % ID/g
  Radioactivity Uptake, Stomach: 0.32 ± 0.12 % ID/g
  Radioactivity Uptake, Thymus: 0.12 ± 0.04 % ID/g
  Radioactivity Uptake, Thyroid: 0.33 ± 0.07 % ID/g
  Radioactivity Uptake, Urine: 0.76 ± 0.56 % ID/g
5 min after injection, rats
  Radioactivity Uptake, Bone: 0.02 ± 0.24 % ID/g
  Radioactivity Uptake, Brain: 0.04 ± 0.03 % ID/g
  Radioactivity Uptake, Colon: 0.02 ± 0.01 % ID/g
  Radioactivity Uptake, Fat: 0.07 ± 0.05 % ID/g
  Radioactivity Uptake, Heart: 0.18 ± 0.07 % ID/g
  Radioactivity Uptake, Kidneys: 3.06 ± 1.41 % ID/g
  Radioactivity Uptake, Liver: 1.50 ± 0.84 % ID/g
  Radioactivity Uptake, Lung: 0.48 ± 0.43 % ID/g
  Radioactivity Uptake, Muscle: 0.06 ± 0.01 % ID/g
  Radioactivity Uptake, Pancreas: 0.20 ± 0.17 % ID/g
  Radioactivity Uptake, Skin: 0.12 ± 0.08 % ID/g
  Radioactivity Uptake, Small Intestine: 0.48 ± 0.14 % ID/g
  Radioactivity Uptake, Spleen: 0.20 ± 0.08 % ID/g
  Radioactivity Uptake, Stomach: 0.25 ± 0.26 % ID/g
  Radioactivity Uptake, Thymus: 0.07 ± 0.01 % ID/g
  Radioactivity Uptake, Thyroid: 0.27 ± 0.11 % ID/g
  Radioactivity Uptake, Urine: 0.68 ± 0.03 % ID/g
10 min after injection, rats
  Radioactivity Uptake, Bone: 0.04 ± 0.03 % ID/g
  Radioactivity Uptake, Brain: 0.01 ± 0.00 % ID/g
  Radioactivity Uptake, Colon: 0.03 ± 0.01 % ID/g
  Radioactivity Uptake, Fat: 0.07 ± 0.03 % ID/g
  Radioactivity Uptake, Heart: 0.06±0.01 % ID/g
  Radioactivity Uptake, Kidneys: 1.79 ± 0.39 % ID/g
  Radioactivity Uptake, Liver: 0.89 ± 0.30 % ID/g
  Radioactivity Uptake, Lung: 0.23 ± 0.24 % ID/g
  Radioactivity Uptake, Muscle: 0.06 ± 0.01 % ID/g
  Radioactivity Uptake, Pancreas: 0.12 ± 0.04 % ID/g
  Radioactivity Uptake, Skin: 0.05 ± 0.04 % ID/g
  Radioactivity Uptake, Small Intestine: 0.50 ± 0.19 % ID/g
  Radioactivity Uptake, Spleen: 0.09 ± 0.04 % ID/g
  Radioactivity Uptake, Stomach: 0.30 ± 0.24 % ID/g
  Radioactivity Uptake, Thymus: 0.04 ± 0.03 % ID/g
  Radioactivity Uptake, Thyroid: 0.11 ± 0.04 % ID/g
  Radioactivity Uptake, Urine: 2.35 ± 2.63 % ID/g
30 min after injection, rats
  Radioactivity Uptake, Bone: 0.01 ± 0.01 % ID/g
  Radioactivity Uptake, Brain: 0.01 ± 0.01 % ID/g
  Radioactivity Uptake, Colon: 0.04 ± 0.03 % ID/g
  Radioactivity Uptake, Fat: 0.01 ± 0.00 % ID/g
  Radioactivity Uptake, Heart: 0.02±0.02 % ID/g
  Radioactivity Uptake, Kidneys: 1.40 ± 0.96 % ID/g
  Radioactivity Uptake, Liver: 0.32±0.02 % ID/g
  Radioactivity Uptake, Lung: 0.05 ± 0.01 % ID/g
  Radioactivity Uptake, Muscle: 0.02 ± 0.01 % ID/g
  Radioactivity Uptake, Pancreas: 0.01 ± 0.00 % ID/g
  Radioactivity Uptake, Skin: 0.04 ± 0.03 % ID/g
  Radioactivity Uptake, Small Intestine: 0.52 ± 0.20 % ID/g
  Radioactivity Uptake, Spleen: 0.02 ± 0.02 % ID/g
  Radioactivity Uptake, Stomach: 0.57 ± 0.41 % ID/g
  Radioactivity Uptake, Thymus: 0.01 ± 0.00 % ID/g
  Radioactivity Uptake, Thyroid: 0.02 ± 0.02 % ID/g
  Radioactivity Uptake, Urine: 8.83 ± 8.50 % ID/g
60 min after injection, rats
  Radioactivity Uptake, Bone: 0.00 ± 0.00 % ID/g
  Radioactivity Uptake, Brain: 0.00 ± 0.00 % ID/g
  Radioactivity Uptake, Colon: 0.01 ± 0.00 % ID/g
  Radioactivity Uptake, Fat: 0.00 ± 0.00 % ID/g
  Radioactivity Uptake, Heart: 0.01 ± 0.00 % ID/g
  Radioactivity Uptake, Kidneys: 0.75 ± 0.59 % ID/g
  Radioactivity Uptake, Liver: 0.21 ± 0.07 % ID/g
  Radioactivity Uptake, Lung: 0.03 ± 0.01 % ID/g
  Radioactivity Uptake, Muscle: 0.01 ± 0.00 % ID/g
  Radioactivity Uptake, Pancreas: 0.02 ± 0.01 % ID/g
  Radioactivity Uptake, Skin: 0.02 ± 0.01 % ID/g
  Radioactivity Uptake, Small Intestine: 0.36 ± 0.41 % ID/g
  Radioactivity Uptake, Spleen: 0.02 ± 0.01 % ID/g
  Radioactivity Uptake, Stomach: 0.04 ± 0.05 % ID/g
  Radioactivity Uptake, Thymus: 0.01 ± 0.00 % ID/g
  Radioactivity Uptake, Thyroid: 0.01 ± 0.00 % ID/g
  Radioactivity Uptake, Urine: 10.85 ± 12.48 % ID/g
liver, after injection
  time for hepatic signal to decline to sufficiently low level: ≤ 30 min
rats, intravenous injection, estimated
  blood half-life: less than 2 min
